Results on 26 compounds are retold here after patent US20260083851A1 (AVILAR THERAPEUTICS, INC., priority 2022, published 2026).

Molecules are shown by their SMILES. Where two headings read alike, the source gives them in different places.

In the experiment the target is T1, ASGP receptor (biotinylated ASGPR) (Homo sapiens, UniProt P07306).
T1 construct: biotin (biotinylated)
T1 sequence (P07306 1-291): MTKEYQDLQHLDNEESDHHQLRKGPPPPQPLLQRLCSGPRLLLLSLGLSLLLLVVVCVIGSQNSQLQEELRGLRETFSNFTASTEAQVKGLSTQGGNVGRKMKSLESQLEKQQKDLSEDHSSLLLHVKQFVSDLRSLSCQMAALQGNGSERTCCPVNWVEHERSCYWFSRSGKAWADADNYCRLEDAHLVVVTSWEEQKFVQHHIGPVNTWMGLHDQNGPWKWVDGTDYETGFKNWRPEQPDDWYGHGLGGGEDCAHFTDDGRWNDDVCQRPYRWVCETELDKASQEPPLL
Type of experiment: binding. As to conditions: SPR, Biacore 8K, 25° C. (In SPR one partner is held on a chip, and binding of the other changes the refractive index at the surface.)

Setting [1] is: Table 1B, numeric bound, read-out: ASGPR Kd.

For the compound `COC(=O)c1ccc(OC[C@H]2O[C@H](C)[C@H](O)[C@H](O)[C@H]2Oc2cccc(C(F)(F)F)n2)nn1` [A315], the Kd (Table 1C, read-out: ASGPR KD) was below 10 µM. In the case of `C[C@H]1O[C@H](C(=O)NCCOCCOCC(=O)O)[C@H](Oc2cccc(C(F)(F)F)n2)[C@@H](O)[C@H]1O` [A440], the dissociation constant Kd (Table 1E, numeric bound, read-out: ASGPR KD) was above 30 µM. For `O=C(c1ccc(C(F)(F)F)cc1F)N1C[C@H](Nc2cncc(C(F)(F)F)n2)[C@@H](O)[C@@H](O)C1` [A379], the Kd (Table 1D, read-out: ASGPR KD) was below 10 µM. For the compound `O=C(NC[C@H]1OC[C@H](Nc2cncc(C(F)(F)F)n2)[C@@H](O)[C@H]1O)c1cc2ccccc2[nH]1` [A14, N-(((2R,3R,4R,5S)-3,4-dihydroxy-5-((6-(trifluoromethyl)pyrazin-2-yl)amino)tetrahydro-2H-pyran-2-yl)methyl)-1H-indole-2-carboxamide], the dissociation constant (Kd) (Table 1A, read-out: ASGPR KD) is below 10 µM. Consider `O=C(NC[C@H]1OC[C@H](Nc2cncc(C(F)(F)F)n2)[C@@H](O)[C@H]1O)c1ncc[nH]1` [A40, N-(((2R,3R,4R,5S)-3,4-dihydroxy-5-((6-(trifluoromethyl)pyrazin-2-yl)amino)tetrahydro-2H-pyran-2-yl)methyl)-1H-imidazole-2-carboxamide], for which the equilibrium dissociation constant (Kd) (Table 1A, read-out: ASGPR KD) is below 10 µM.

Take `C[C@H]1O[C@H](COc2cccc(C(F)(F)F)n2)[C@H](O)[C@@H](O)[C@H]1O` [A445]: the dissociation constant (Kd) (Table 1E, read-out: ASGPR KD) is 10 to 100 µM.

As for `CC(C)(C)OC(=O)N1CC2CN(C[C@H]3OC[C@H](Nc4cncc(C(F)(F)F)n4)[C@@H](O)[C@H]3O)CC21` (stereo partly drawn) [A230, tert-butyl 3-(((2R,3R,4R,5S)-3,4-dihydroxy-5-((6-(trifluoromethyl)pyrazin-2-yl)amino)tetrahydro-2H-pyran-2-yl)methyl)-3,6-diazabicyclo [3.2.0] heptane-6-carboxylate], under “Table 1C, read-out: ASGPR KD”, the Kd was below 10 µM. Consider `O=C(O)CCCCC(=O)N1C[C@H](Nc2cncc(C(F)(F)F)n2)[C@@H](O)[C@@H](O)C1` [A408], for which the dissociation constant Kd (Table 1D, read-out: ASGPR KD) is below 10 µM. Same read-out and setting: as for `O[C@@H]1[C@@H](Nc2cncc(C(F)(F)F)n2)CN(c2cccnn2)C[C@@H]1O` [A395], the figure is below 10 µM. With `O=C(O)c1ccc(S(=O)(=O)NC[C@H]2OC[C@H](Nc3cncc(C(F)(F)F)n3)[C@@H](O)[C@H]2O)cc1` [A111, 4-(N-(((2R,3R,4R,5S)-3,4-dihydroxy-5-((6-(trifluoromethyl)pyrazin-2-yl)amino)tetrahydro-2H-pyran-2-yl)methyl)sulfamoyl)benzoic acid], the Kd (Table 1A, read-out: ASGPR KD) was below 10 µM. `OC[C@H]1CC[C@H](Nc2cncc(C(F)(F)F)n2)[C@@H](O)[C@H]1O` [A65, (1R,2S,3R,6S)-3-(hydroxymethyl)-6-((6-(trifluoromethyl)pyrazin-2-yl)amino)cyclohexane-1,2-diol]: the Kd (Table 1A, read-out: ASGPR KD) was below 10 µM. Still for that read-out and setting: as for `O[C@@H]1[C@H](O)[C@@H](Nc2cncc(C(F)(F)F)n2)CO[C@@H]1COc1cnccn1` [A60, (2R,3R,4R,5S)-2-((pyrazin-2-yloxy)methyl)-5-((6-(trifluoromethyl)pyrazin-2-yl)amino)tetrahydro-2H-pyran-3,4-diol], the figure is below 10 µM. Same read-out and setting: as for `O=C(O)c1ccc(N2CCC(CN3CCN(C[C@H]4OC[C@H](Nc5ccnc(C(F)(F)F)n5)[C@@H](O)[C@H]4O)CC3)CC2)cc1` [A97, 4-(4-((4-(((2R,3R,4R,5S)-3,4-dihydroxy-5-((2-(trifluoromethyl)pyrimidin-4-yl)amino)tetrahydro-2H-pyran-2-yl)methyl)piperazin-1-yl)methyl)piperidin-1-yl)benzoic acid], the figure is below 10 µM. With `OC[C@H]1OC[C@H](NC2CCCCC2)[C@@H](O)[C@H]1O` [A159, (2R,3R,4R,5S)-5-(cyclohexylamino)-2-(hydroxymethyl)tetrahydro-2H-pyran-3,4-diol], the equilibrium dissociation constant (Kd) under setting [1] was above 30 µM. Turning to `N#CC[C@H]1OC[C@H](Nc2cncc(C(F)(F)F)n2)[C@@H](O)[C@H]1O` [A21, 2-((2R,3R,4R,5S)-3,4-dihydroxy-5-((6-(trifluoromethyl)pyrazin-2-yl)amino)tetrahydro-2H-pyran-2-yl)acetonitrile], the dissociation constant Kd (Table 1A, read-out: ASGPR KD) is below 10 µM. Same read-out and setting: as for `OC[C@H]1OC[C@H](Nc2ccccc2)[C@@H](O)[C@H]1O` [A108, (2R,3R,4R,5S)-2-(hydroxymethyl)-5-(phenylamino)tetrahydro-2H-pyran-3,4-diol], the figure is below 10 µM.

Regarding `O=C(NC[C@H]1OC[C@H](Nc2cncc(C(F)(F)F)n2)[C@@H](O)[C@H]1O)c1cnc2c(c1)CCNC2` [A76, N-(((2R,3R,4R,5S)-3,4-dihydroxy-5-((6-(trifluoromethyl)pyrazin-2-yl)amino)tetrahydro-2H-pyran-2-yl)methyl)-5,6,7,8-tetrahydro-1,7-naphthyridine-3-carboxamide], the Kd (Table 1A, read-out: ASGPR KD) was below 10 µM. Still for that read-out and setting: as for `[N-]=[N+]=NCCCCCC(=O)NC(COCCC(=O)NCCOCCOCCOCCOC[C@H]1OC[C@H](Nc2cncc(C(F)(F)F)n2)[C@@H](O)[C@H]1O)(COCCC(=O)NCCOCCOCCOCCOC[C@H]1OC[C@H](Nc2cncc(C(F)(F)F)n2)[C@@H](O)[C@H]1O)COCCC(=O)NCCOCCOCCOCCOC[C@H]1OC[C@H](Nc2cncc(C(F)(F)F)n2)[C@@H](O)[C@H]1O` [A87, 3,3′-((2-(6-azidohexanamido)-2-(1-((2R,3R,4R,5S)-3,4-dihydroxy-5-((6-(trifluoromethyl)pyrazin-2-yl)amino)tetrahydro-2H-pyran-2-yl)-15-oxo-2,5,8,11,18-pentaoxa-14-azanonadecan-19-yl)propane-1,3-diyl)bis(oxy))bis(N-(1-((2R,3R,4R,5S)-3,4-dihydroxy-5-((6-(trifluoromethyl)pyrazin-2-yl)amino)tetrahydro-2H-pyran-2-yl)-2,5,8,11-tetraoxatridecan-13-yl)propanamide)], the figure is below 10 µM. Consider `C[C@H]1O[C@H](C#N)[C@H](Oc2cccc(C(F)(F)F)n2)[C@@H](O)[C@H]1O` [A432], for which the equilibrium dissociation constant (Kd) (Table 1E, read-out: ASGPR KD) was below 10 µM. Consider `O=C(NC[C@H]1OC[C@H](Nc2cncc(C(F)(F)F)n2)[C@@H](O)[C@H]1O)c1cnccn1` [A20, N-(((2R,3R,4R,5S)-3,4-dihydroxy-5-((6-(trifluoromethyl)pyrazin-2-yl)amino)tetrahydro-2H-pyran-2-yl)methyl)pyrazine-2-carboxamide], for which the dissociation constant (Kd) (Table 1A, read-out: ASGPR KD) is below 10 µM.

Turning to `O=C(CCCCC(=O)N1C[C@H](Nc2cncc(C(F)(F)F)n2)[C@@H](O)[C@@H](O)C1)OCc1ccccc1` [A404], under “Table 1D, read-out: ASGPR KD”, the Kd was below 10 µM. As to `O=C(O)COCCOCCOCC(=O)NC[C@H]1OC[C@H](Nc2cncc(C(F)(F)F)n2)[C@@H](O)[C@H]1O` [A33], under “Table 1A, read-out: ASGPR KD”, the Kd is below 10 µM. As to `OC[C@H]1OC[C@H](NC2CCC2)[C@@H](O)[C@H]1O` [A166, (2R,3R,4R,5S)-5-(cyclobutylamino)-2-(hydroxymethyl)tetrahydro-2H-pyran-3,4-diol], under setting [1], the Kd is above 30 µM.

As for `CC(C)(C)OC(=O)N1CCN(c2ccc(OC[C@H]3OC[C@H](Oc4cccc(C(F)(F)F)n4)[C@@H](O)[C@H]3O)cc2F)CC1` [A213, tert-butyl 4-(4-(((2R,3R,4S,5S)-3,4-dihydroxy-5-((6-(trifluoromethyl)pyridin-2-yl)oxy)tetrahydro-2H-pyran-2-yl)methoxy)-2-fluorophenyl) piperazine-1-carboxylate], under “Table 1C, read-out: ASGPR KD”, the dissociation constant (Kd) was below 10 µM. With `O[C@@H]1[C@H](O)[C@@H](Oc2cccc(C(F)(F)F)n2)CO[C@@H]1CN1CCN(c2cccnc2)CC1` [A275], the Kd (Table 1C, read-out: ASGPR KD) was below 10 µM. With `CC(NC[C@H]1OC[C@H](Nc2cncc(C(F)(F)F)n2)[C@@H](O)[C@H]1O)c1ncccn1` (stereo partly drawn) [A55, (2R,3R,4R,5S)-2-(((1-(pyrimidin-2-yl)ethyl)amino)methyl)-5-((6-(trifluoromethyl)pyrazin-2-yl)amino)tetrahydro-2H-pyran-3,4-diol], for the setting “Table 1A, read-out: ASGPR KD”, the Kd is below 10 µM.

Usually Kd stands for a measure of binding affinity in units of concentration.
